Experimental data: paper PMC8199946

How the values were obtained:
[1] = macrolactonisation by intramolecular SN2 of carboxylate on C6 sulfonate (tosylate; one brosylate, one chloride) of glucosamine derivative, K2CO3 2 equiv; conditions: DMF, 10.0 mM, 75.0 °C
[2] = macrolactonisation by intramolecular SN2 of carboxylate on C6 tosylate of GlcNAc derivative, K2CO3 2 equiv; conditions: MeCN, 6.0 mM, 75.0 °C

Compound `CC(=O)N[C@H]1[C@H]2OCCn3cc(nn3)CCCCCCCCC(=O)OC[C@@H](O2)[C@@H](OC(=O)c2ccccc2)[C@@H]1OC(=O)c1ccccc1` [8b -> LM28, Cl] has a ring closure, isolated yield ([1]; from CC(=O)N[C@H]1[C@@H](OCCn2cc(CCCCCCCCC(=O)O)nn2)O[C@H](CCl)[C@@H](OC(=O)c2ccccc2)[C@@H]1OC(=O)c1ccccc1, 20-membered ring, 5.0 h) of 67%.

`CC(=O)N[C@H]1[C@H]2OCCn3cc(nn3)CCCCCCCCC(=O)OC[C@@H](O2)[C@@H](OC(=O)c2ccccc2)[C@@H]1OC(=O)c1ccccc1` [8c -> LM28 (13c)] gave a ring closure, isolated yield ([2]; from CC(=O)N[C@H]1[C@@H](OCCn2cc(CCCCCCCCC(=O)O)nn2)O[C@H](COS(=O)(=O)c2ccc(C)cc2)[C@@H](OC(=O)c2ccccc2)[C@@H]1OC(=O)c1ccccc1, 20-membered ring, 6.0 h) of 77%.

In the case of `CC(=O)N[C@H]1[C@H]2OCCn3cc(nn3)CCCCCCCCC(=O)OC[C@@H](O2)[C@@H](OC(=O)c2ccccc2)[C@@H]1OC(=O)c1ccccc1` [8a -> LM28, OBs], the ring closure, isolated yield ([1]; from CC(=O)N[C@H]1[C@@H](OCCn2cc(CCCCCCCCC(=O)O)nn2)O[C@H](COS(=O)(=O)c2ccc(Br)cc2)[C@@H](OC(=O)c2ccccc2)[C@@H]1OC(=O)c1ccccc1, 20-membered ring, 5.0 h) is reported as 72%.

Compound `CC(=O)N[C@H]1[C@H]2OCCn3cc(nn3)CCCCCCCCC(=O)OC[C@@H](O2)[C@@H](OC(=O)c2ccccc2)[C@@H]1OC(=O)c1ccccc1` [8c -> 13c (LM28), OTs] has a ring closure, isolated yield ([1]; from CC(=O)N[C@H]1[C@@H](OCCn2cc(CCCCCCCCC(=O)O)nn2)O[C@H](COS(=O)(=O)c2ccc(C)cc2)[C@@H](OC(=O)c2ccccc2)[C@@H]1OC(=O)c1ccccc1, 20-membered ring, 3.0 h) of 82%.

`CC(=O)N[C@H]1[C@H]2OCCCn3cc(nn3)CCCCCc3cn(nn3)CCC(=O)OC[C@@H](O2)[C@@H](OC(=O)c2ccccc2)[C@@H]1OC(=O)c1ccccc1` [15d -> 16d (DM35)] gave a ring closure, isolated yield ([2]; from CC(=O)N[C@H]1[C@@H](OCCCn2cc(CCCCCc3cn(CCC(=O)O)nn3)nn2)O[C@H](COS(=O)(=O)c2ccc(C)cc2)[C@@H](OC(=O)c2ccccc2)[C@@H]1OC(=O)c1ccccc1, 23-membered ring, 15.0 h) of 74% and a ring closure, isolated yield ([1]; from CC(=O)N[C@H]1[C@@H](OCCCn2cc(CCCCCc3cn(CCC(=O)O)nn3)nn2)O[C@H](COS(=O)(=O)c2ccc(C)cc2)[C@@H](OC(=O)c2ccccc2)[C@@H]1OC(=O)c1ccccc1, 23-membered ring, 3.0 h) of 78%.

`CC(=O)N[C@H]1[C@H]2OCCn3cc(nn3)CCCCc3cn(nn3)CCC(=O)OC[C@@H](O2)[C@@H](OC(=O)c2ccccc2)[C@@H]1OC(=O)c1ccccc1` [15a -> 16a (DM24)] gave a ring closure, isolated yield ([2]; from CC(=O)N[C@H]1[C@@H](OCCn2cc(CCCCc3cn(CCC(=O)O)nn3)nn2)O[C@H](COS(=O)(=O)c2ccc(C)cc2)[C@@H](OC(=O)c2ccccc2)[C@@H]1OC(=O)c1ccccc1, 21-membered ring, 11.0 h) of 77% and a ring closure, isolated yield ([1]; from CC(=O)N[C@H]1[C@@H](OCCn2cc(CCCCc3cn(CCC(=O)O)nn3)nn2)O[C@H](COS(=O)(=O)c2ccc(C)cc2)[C@@H](OC(=O)c2ccccc2)[C@@H]1OC(=O)c1ccccc1, 21-membered ring, 4.0 h) of 90%.

For `CC(=O)N[C@H]1[C@H]2OCCCn3cc(nn3)CCCCCCC(=O)OC[C@@H](O2)[C@@H](OC(=O)c2ccccc2)[C@@H]1OC(=O)c1ccccc1` [12b -> 14b (LM36)], the ring closure, isolated yield ([1]; from CC(=O)N[C@H]1[C@@H](OCCCn2cc(CCCCCCC(=O)O)nn2)O[C@H](COS(=O)(=O)c2ccc(C)cc2)[C@@H](OC(=O)c2ccccc2)[C@@H]1OC(=O)c1ccccc1, 19-membered ring, 2.0 h) was 83%.

Work on `CO[C@H]1O[C@@H]2COC(=O)CCn3cc(nn3)CCCCc3cn(nn3)CC(=O)N[C@@H]1[C@@H](OC(=O)c1ccccc1)[C@@H]2OC(=O)c1ccccc1` [23 -> 24 (C2DLM)] yielded a ring closure, isolated yield ([1]; from CO[C@H]1O[C@H](COS(=O)(=O)c2ccc(C)cc2)[C@@H](OC(=O)c2ccccc2)[C@H](OC(=O)c2ccccc2)[C@H]1NC(=O)Cn1cc(CCCCc2cn(CCC(=O)O)nn2)nn1, 22-membered ring, 2.0 h) of 77%.

Compound `CC(=O)N[C@H]1[C@H]2OCCCn3cc(nn3)CCCCCCCCC(=O)OC[C@@H](O2)[C@@H](OC(=O)c2ccccc2)[C@@H]1OC(=O)c1ccccc1` [12c -> 14c (LM38)] has a ring closure, isolated yield ([1]; from CC(=O)N[C@H]1[C@@H](OCCCn2cc(CCCCCCCCC(=O)O)nn2)O[C@H](COS(=O)(=O)c2ccc(C)cc2)[C@@H](OC(=O)c2ccccc2)[C@@H]1OC(=O)c1ccccc1, 21-membered ring, 2.0 h) of 83%.

`CC(=O)N[C@H]1[C@H]2OCCn3cc(nn3)CCCCCc3cn(nn3)CCC(=O)OC[C@@H](O2)[C@@H](OC(=O)c2ccccc2)[C@@H]1OC(=O)c1ccccc1` [15b -> 16b (DM25)] showed a ring closure, isolated yield ([2]; from CC(=O)N[C@H]1[C@@H](OCCn2cc(CCCCCc3cn(CCC(=O)O)nn3)nn2)O[C@H](COS(=O)(=O)c2ccc(C)cc2)[C@@H](OC(=O)c2ccccc2)[C@@H]1OC(=O)c1ccccc1, 22-membered ring, 14.0 h) of 71% and a ring closure, isolated yield ([1]; from CC(=O)N[C@H]1[C@@H](OCCn2cc(CCCCCc3cn(CCC(=O)O)nn3)nn2)O[C@H](COS(=O)(=O)c2ccc(C)cc2)[C@@H](OC(=O)c2ccccc2)[C@@H]1OC(=O)c1ccccc1, 22-membered ring, 2.0 h) of 88%.

`CO[C@H]1O[C@@H]2COC(=O)CCCCCCCCc3cn(nn3)CC(=O)N[C@@H]1[C@@H](OC(=O)c1ccccc1)[C@@H]2OC(=O)c1ccccc1` [21 -> 22 (C2ML)] showed a ring closure, isolated yield ([1]; from CO[C@H]1O[C@H](COS(=O)(=O)c2ccc(C)cc2)[C@@H](OC(=O)c2ccccc2)[C@H](OC(=O)c2ccccc2)[C@H]1NC(=O)Cn1cc(CCCCCCCCC(=O)O)nn1, 21-membered ring, 2.0 h) of 80%.

With `CC(=O)N[C@H]1[C@H]2OCCCn3cc(nn3)CCCCc3cn(nn3)CCC(=O)OC[C@@H](O2)[C@@H](OC(=O)c2ccccc2)[C@@H]1OC(=O)c1ccccc1` [15c -> 16c (DM34)] the ring closure, isolated yield ([2]; from CC(=O)N[C@H]1[C@@H](OCCCn2cc(CCCCc3cn(CCC(=O)O)nn3)nn2)O[C@H](COS(=O)(=O)c2ccc(C)cc2)[C@@H](OC(=O)c2ccccc2)[C@@H]1OC(=O)c1ccccc1, 22-membered ring, 14.0 h) was 78% and the ring closure, isolated yield ([1]; from CC(=O)N[C@H]1[C@@H](OCCCn2cc(CCCCc3cn(CCC(=O)O)nn3)nn2)O[C@H](COS(=O)(=O)c2ccc(C)cc2)[C@@H](OC(=O)c2ccccc2)[C@@H]1OC(=O)c1ccccc1, 22-membered ring, 2.0 h) was 85%.

For `CC(=O)N[C@H]1[C@H]2OCCCn3cc(nn3)CCCCC(=O)OC[C@@H](O2)[C@@H](OC(=O)c2ccccc2)[C@@H]1OC(=O)c1ccccc1` [12a -> 14a (LM34)], the ring closure, isolated yield ([1]; from CC(=O)N[C@H]1[C@@H](OCCCn2cc(CCCCC(=O)O)nn2)O[C@H](COS(=O)(=O)c2ccc(C)cc2)[C@@H](OC(=O)c2ccccc2)[C@@H]1OC(=O)c1ccccc1, 17-membered ring, 2.0 h) was 88%.

With `CC(=O)N[C@H]1[C@H]2OCCn3cc(nn3)CCCCCCC(=O)OC[C@@H](O2)[C@@H](OC(=O)c2ccccc2)[C@@H]1OC(=O)c1ccccc1` [11b -> 13b (LM26)] the ring closure, isolated yield ([1]; from CC(=O)N[C@H]1[C@@H](OCCn2cc(CCCCCCC(=O)O)nn2)O[C@H](COS(=O)(=O)c2ccc(C)cc2)[C@@H](OC(=O)c2ccccc2)[C@@H]1OC(=O)c1ccccc1, 18-membered ring, 5.0 h) was 76%.

In the case of `CC(=O)N[C@H]1[C@H]2OCCn3cc(nn3)CCCCC(=O)OC[C@@H](O2)[C@@H](OC(=O)c2ccccc2)[C@@H]1OC(=O)c1ccccc1` [11a -> 13a (LM24)], the ring closure, isolated yield ([1]; from CC(=O)N[C@H]1[C@@H](OCCn2cc(CCCCC(=O)O)nn2)O[C@H](COS(=O)(=O)c2ccc(C)cc2)[C@@H](OC(=O)c2ccccc2)[C@@H]1OC(=O)c1ccccc1, 16-membered ring, 2.0 h) is reported as 88%.
